US9573884B2 (priority 2010, dated 2017)
Values joined by “and” are separate entries in the source; they are usually repeats but may differ in a detail not shown here. Identical values can stand only once.

What was measured:
Type in all cases: cell-based
[1] = test system: Pseudomonas aeruginosa
[2] = test system: Staphylococcus aureas
[3] = test system: Pseudomonas aeruginosa and Staphylococcus aureas

CC/C=C/CCCCCCCC(=O)NCCN1CC[N+](C)=C1CCCCCCC/C=C/CC [C12-13, C12 DETA Quat]
% Kill [1]: 27.1% and 13.7% | % Kill [2]: 48.3% and 33.1% | Overall Rating [3]: good
